The source of these data is patent publication US7067476B2, “Peptide derivative, and pharmaceutically acceptable salt thereof, process for producing the same, and use thereof” (priority 2001, dated 2006).

The target in one test is Lys-gingipain (KGP) (Porphyromonas gingivalis, UniProt B2RLK2). Briefly: Inhibitory activity against Lys-gingipain (KGP), substrate Cbz-His-Glu-Lys-MCA. The test is classed as biochemical. To be noted: read-out: Enzyme inhibitory activity (%) KGP. On the procedure:
(§1) The inhibitory activity against Lys-gingipain (KGP) was measured by the method of Abe et al. (Journal Biochemistry, 1998, Vol. 123, 305–312) using Cbz-His-Glu-Lys-MCA as a substrate. The inhibitory activity against Arg-gingipain (RGP) was measured by the method of Kadowaki et al. (Journal Biological Chemistry, 1994, Vol. 269, 21371–21378) using Cbz-Phe-Arg-MCA as a substrate. More specifically, the measurements were carried out in the following manner: 100 μl of 50 mM L-cystein, 200 μl of a 0.1 M sodium phosphate buffer solution (pH 7.5), 20 μl of 12.3 nM KGP or RGP solution containing 0.05% “Brij35” (a tradename, product of Aldrich, polyoxyethylene(23) lauryl ether), 80 μl of distilled water and 100 μl of a dimethyl sulfoxide solution of a compound according to the invention were mixed and preincubated at 37° C. for 5 minutes. Thereafter, 500 μl of a 0.1% dimethyl sulfoxide solution containing 20 μM Cbz-His-Glu-Lys-MCA (for KGP) or Cbz-Phe-Arg-MCA (for RGP) was added, followed by incubation at 40° C. for 10 minutes. An acetic acid buffer solution (pH 5.0) containing 10 mM iodoacetamide was then added to stop the enzyme reaction. The fluorescence intensity (F) at 460 nm upon excitation at 380 nm was measured.

In a further test the test system is Arg-gingipain (RGP). Briefly: Inhibitory activity against Arg-gingipain (RGP), substrate Cbz-Phe-Arg-MCA. In kind it is biochemical, Porphyromonas gingivalis. On the procedure:
as §1

SMILES strings stand for the structures.

As for `Cl.NCCCC[C@H](NC(=O)[C@H](CCC(=O)O)NC(=O)OCc1ccccc1)C(=O)C(=O)N[C@@H](CCCNC(N)=N[N+](=O)[O-])C(=O)C(=O)NCCc1ccccc1` [Example 3], on Lys-gingipain (KGP), the inhibition at 1 µM was 99.9%. The inhibition at 10 µM on Lys-gingipain (KGP) is 99.9%. In addition, the inhibition at 100 µM at Lys-gingipain (KGP) came out at 100%. Besides, the entries for the “Enzyme inhibitory activity (%) RGP” value with Arg-gingipain (RGP) (concentration 10^−4 mol/l), with Arg-gingipain (RGP) (concentration 10^−5 mol/l) and with Arg-gingipain (RGP) (concentration 10^−6 mol/l) were 99.4%, 96.8% and 81.1%, respectively.
